Experimental data published in the NIST ThermoML archive (doi:10.1016/j.fluid.2015.03.016).
Where “and” joins values, the source holds several entries; their conditions need not be identical. Equal values may be shown once.

Settings: Liquid

CCCCOC(=O)CCCCC(=O)OCCCC [dibutyl hexanedioate]
Settings | viscosity
313.14 K, 50610 kPa, Vibrating wire viscometry | 5.595 mPa·s and 5.596 mPa·s and 5.591 mPa·s
313.14 K, 50640 kPa, Vibrating wire viscometry | 5.591 mPa·s
313.14 K, 65090 kPa, Vibrating wire viscometry | 6.358 mPa·s
313.14 K, 65110 kPa, Vibrating wire viscometry | 6.365 mPa·s
313.15 K, 5050 kPa, Vibrating wire viscometry | 3.522 mPa·s and 3.516 mPa·s
313.15 K, 5310 kPa, Vibrating wire viscometry | 3.531 mPa·s
313.15 K, 5320 kPa, Vibrating wire viscometry | 3.531 mPa·s
313.15 K, 5340 kPa, Vibrating wire viscometry | 3.529 mPa·s
313.15 K, 5350 kPa, Vibrating wire viscometry | 3.534 mPa·s
313.15 K, 5370 kPa, Vibrating wire viscometry | 3.531 mPa·s
313.15 K, 5380 kPa, Vibrating wire viscometry | 3.532 mPa·s
313.15 K, 7570 kPa, Vibrating wire viscometry | 3.59 mPa·s
313.15 K, 7580 kPa, Vibrating wire viscometry | 3.595 mPa·s
313.15 K, 7610 kPa, Vibrating wire viscometry | 3.598 mPa·s
313.15 K, 10450 kPa, Vibrating wire viscometry | 3.717 mPa·s
313.15 K, 10470 kPa, Vibrating wire viscometry | 3.712 mPa·s
313.15 K, 10500 kPa, Vibrating wire viscometry | 3.714 mPa·s
313.15 K, 15160 kPa, Vibrating wire viscometry | 3.887 mPa·s and 3.889 mPa·s
313.15 K, 15180 kPa, Vibrating wire viscometry | 3.891 mPa·s
313.15 K, 20420 kPa, Vibrating wire viscometry | 4.122 mPa·s
313.15 K, 30150 kPa, Vibrating wire viscometry | 4.56 mPa·s
313.15 K, 30200 kPa, Vibrating wire viscometry | 4.555 mPa·s
323.11 K, 101.33 kPa, Capillary tube (Ostwald / Ubbelohde) method | 2.704 mPa·s
323.14 K, 1140 kPa, Vibrating wire viscometry | 2.727 mPa·s and 2.723 mPa·s
323.14 K, 5040 kPa, Vibrating wire viscometry | 2.856 mPa·s
323.14 K, 10170 kPa, Vibrating wire viscometry | 3.018 mPa·s
323.14 K, 30230 kPa, Vibrating wire viscometry | 3.694 mPa·s and 3.693 mPa·s
323.14 K, 39990 kPa, Vibrating wire viscometry | 4.08 mPa·s
323.14 K, 40050 kPa, Vibrating wire viscometry | 4.079 mPa·s
323.15 K, 1130 kPa, Vibrating wire viscometry | 2.728 mPa·s and 2.722 mPa·s
323.15 K, 2630 kPa, Vibrating wire viscometry | 2.775 mPa·s
323.15 K, 2640 kPa, Vibrating wire viscometry | 2.778 mPa·s
323.15 K, 2650 kPa, Vibrating wire viscometry | 2.776 mPa·s and 2.775 mPa·s
323.15 K, 5040 kPa, Vibrating wire viscometry | 2.856 mPa·s
323.15 K, 5070 kPa, Vibrating wire viscometry | 2.86 mPa·s
323.15 K, 5100 kPa, Vibrating wire viscometry | 2.863 mPa·s
323.15 K, 5170 kPa, Vibrating wire viscometry | 2.846 mPa·s
323.15 K, 5180 kPa, Vibrating wire viscometry | 2.841 mPa·s
323.15 K, 5190 kPa, Vibrating wire viscometry | 2.843 mPa·s
323.15 K, 7740 kPa, Vibrating wire viscometry | 2.926 mPa·s and 2.931 mPa·s
323.15 K, 7750 kPa, Vibrating wire viscometry | 2.924 mPa·s
323.15 K, 7760 kPa, Vibrating wire viscometry | 2.926 mPa·s and 2.931 mPa·s
323.15 K, 10130 kPa, Vibrating wire viscometry | 3.018 mPa·s
323.15 K, 10140 kPa, Vibrating wire viscometry | 3.02 mPa·s
323.15 K, 10150 kPa, Vibrating wire viscometry | 3.02 mPa·s and 3.016 mPa·s
323.15 K, 15220 kPa, Vibrating wire viscometry | 3.172 mPa·s and 3.173 mPa·s and 3.174 mPa·s
323.15 K, 15230 kPa, Vibrating wire viscometry | 3.175 mPa·s and 3.171 mPa·s
323.15 K, 20200 kPa, Vibrating wire viscometry | 3.331 mPa·s
323.15 K, 20230 kPa, Vibrating wire viscometry | 3.327 mPa·s and 3.335 mPa·s
323.15 K, 20250 kPa, Vibrating wire viscometry | 3.33 mPa·s
323.15 K, 20270 kPa, Vibrating wire viscometry | 3.334 mPa·s
323.15 K, 30190 kPa, Vibrating wire viscometry | 3.693 mPa·s
323.15 K, 30220 kPa, Vibrating wire viscometry | 3.689 mPa·s
323.15 K, 40130 kPa, Vibrating wire viscometry | 4.073 mPa·s
323.15 K, 40140 kPa, Vibrating wire viscometry | 4.077 mPa·s
323.15 K, 50030 kPa, Vibrating wire viscometry | 4.456 mPa·s
323.15 K, 50050 kPa, Vibrating wire viscometry | 4.45 mPa·s
323.15 K, 50060 kPa, Vibrating wire viscometry | 4.457 mPa·s
323.16 K, 5190 kPa, Vibrating wire viscometry | 2.849 mPa·s
323.16 K, 65110 kPa, Vibrating wire viscometry | 5.126 mPa·s
323.16 K, 65190 kPa, Vibrating wire viscometry | 5.123 mPa·s
323.16 K, 65230 kPa, Vibrating wire viscometry | 5.125 mPa·s
323.16 K, 65310 kPa, Vibrating wire viscometry | 5.119 mPa·s
333.03 K, 101.33 kPa, Capillary tube (Ostwald / Ubbelohde) method | 2.25 mPa·s
333.15 K, 1000 kPa, Vibrating wire viscometry | 2.27 mPa·s
333.15 K, 1020 kPa, Vibrating wire viscometry | 2.27 mPa·s
333.15 K, 1170 kPa, Vibrating wire viscometry | 2.269 mPa·s
333.15 K, 1200 kPa, Vibrating wire viscometry | 2.268 mPa·s
333.15 K, 2530 kPa, Vibrating wire viscometry | 2.296 mPa·s
333.15 K, 5030 kPa, Vibrating wire viscometry | 2.367 mPa·s
333.15 K, 5050 kPa, Vibrating wire viscometry | 2.362 mPa·s
333.15 K, 5070 kPa, Vibrating wire viscometry | 2.365 mPa·s
